The subject of series [1] is tumor cell. Particulars: in vitro; cited from earlier work.
For series [2], the system named is transplanted Harding-Passey melanomas. On the set-up: species or system BALB/c mice. The following applies: mouse, in vivo. The procedure:
The porphyrins of the present invention were tested for biodistribution and tumor uptake. BALB/c mice carrying transplanted Harding-[…] melanomas subcutaneously on the thigh or abdomen were given six intraperitoneal 0.5 mL injections over two days. The injection solutions contained 1 mg of compound/mL which is a total dose of 3 mg/mouse (approx. 150 μg porphyrin/g body weight or 32.2 μg B/g body weight). The compounds of formula II were completely water soluble and were allowed a 2 day clearance period post injection. The boron content was assayed by prompt gamma analysis using the gamma ray from the ^10 B(n,α)^7 Li reaction. Counts from the […] prompt-.tau.-ray are detected and analyzed using a narrow collimated thermal neutron beam from the Medical Research Reactor at Brookhaven National Laboratory. In this method the mice are dissected and whole organs or tissue samples (0.20-1.0 g) are measured for their boron content. […] Table 1 provides data for both the free base (compound of formula II wherein X is 2H) as well as the zinc chelate (compound of formula II wherein X is Zn), while Table 2 provides data for the free base. […] The long retention of porphyrins in tumor tissue can be exploited by waiting at least 4 days after it has cleared out of the blood before irradiation.

Read-outs that look alike come from different tables or passages of the source.

Na2 B12 H11 SH [BSH]: in series [1], the “retention in tumor cell” value is listed as “does not stay in the tumor cell but is easily washed out”.

Turning to “dipotassium 2,4-bis-[2-(1,2-dicarbaundecaborate(-1))ethenyl]deuteroporphyrin IX [FREE BASE]”, in series [2], the “boron in the normal brain (in words)” value is “only a small amount of boron in the normal brain”; the “crossing of the blood-brain barrier” value is “does not cross the blood-brain barrier”; the “retention of boron in tumor and clearance from blood (in words)” value is given as “retention of boron in the tumor with clearance from the blood over time”; the “tumor to blood ratio (comparison)” value was “higher for the free base”. Moreover, in series [2], the “uptake of boron into the tumor (in words)” value was “substantial uptake of boron into the tumor”. Further, the “tumor to blood ratio” value in series [2] (2880 min) is “approximately 1:1”. Besides, the “tumor to blood ratio” value in series [2] (5760 min) is reported as “approx. 5:1”. In series [2] (ip, 48 h), the uptake in blood was 15.3 ± 1.5 μgB/g TISSUE, the uptake in brain worked out at 2.0 μgB/g TISSUE, the uptake in kidney is 16.8 μgB/g TISSUE and the uptake in liver was 38.0 ± 11.9 μgB/g TISSUE. In series [2] (ip, 48 h), this substance gave an uptake in lung of 20.8 μgB/g TISSUE, an uptake in muscle of 3.9 μgB/g TISSUE, an uptake in spleen of 8.5 μgB/g TISSUE and an uptake in tumor of 18.7 ± 3.4 μgB/g TISSUE.
